The values that follow come from US11731972B2, “Spiro compounds as glycosidase inhibitors” (Asceneuron SA, priority 2018, dated 2023).

Chain of His-Tagged hOGA (human O-GlcNAcase) (O60502 whole entry): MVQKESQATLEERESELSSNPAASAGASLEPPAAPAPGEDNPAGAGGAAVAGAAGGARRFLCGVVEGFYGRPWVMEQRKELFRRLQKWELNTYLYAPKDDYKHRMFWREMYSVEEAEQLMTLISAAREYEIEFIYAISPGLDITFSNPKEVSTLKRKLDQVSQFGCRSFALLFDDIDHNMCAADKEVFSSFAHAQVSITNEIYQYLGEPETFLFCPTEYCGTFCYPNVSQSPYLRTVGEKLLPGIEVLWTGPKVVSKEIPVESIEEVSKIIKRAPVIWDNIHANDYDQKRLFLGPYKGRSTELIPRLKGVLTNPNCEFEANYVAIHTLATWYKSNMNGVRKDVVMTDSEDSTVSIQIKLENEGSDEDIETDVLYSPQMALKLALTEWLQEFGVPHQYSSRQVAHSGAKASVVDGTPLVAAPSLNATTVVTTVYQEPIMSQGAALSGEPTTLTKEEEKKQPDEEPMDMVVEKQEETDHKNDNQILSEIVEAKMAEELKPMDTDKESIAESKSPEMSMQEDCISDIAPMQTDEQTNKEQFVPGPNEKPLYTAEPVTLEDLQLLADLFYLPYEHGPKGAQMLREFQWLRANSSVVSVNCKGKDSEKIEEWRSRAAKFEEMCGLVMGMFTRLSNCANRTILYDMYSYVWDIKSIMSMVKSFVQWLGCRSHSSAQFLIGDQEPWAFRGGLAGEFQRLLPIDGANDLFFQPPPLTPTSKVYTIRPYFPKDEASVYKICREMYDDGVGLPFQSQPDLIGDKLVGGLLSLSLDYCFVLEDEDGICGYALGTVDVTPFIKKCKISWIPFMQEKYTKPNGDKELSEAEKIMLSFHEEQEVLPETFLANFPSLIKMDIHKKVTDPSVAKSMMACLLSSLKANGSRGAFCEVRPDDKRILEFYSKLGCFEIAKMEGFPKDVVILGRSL

The target of the assay is His-Tagged hOGA (human O-GlcNAcase) (Homo sapiens (Human), UniProt O60502). The assay is described as follows: Human O-GlcNAcase enzyme inhibition assay (Example B01). It is filed as biochemical. The following applies: OGA enzyme inhibition assay; FL-GlcNAc substrate, 60 min, room temperature, pH 6.5. As to the method:
Example B01: Human O-GlcNAcase Enzyme Inhibition Assay
5 μl of the appropriate concentration of a solution of inhibitor in McIlvaine's Buffer (pH 6.5) in 2% DMSO (for a dose response curve calculation) is added into each well of a 384-well plate (Greiner, 781900). Then, 20 nM of His-Tagged hOGA and 10 μM of FL-GlcNAc (Fluorescein mono-beta-D-(2-deoxy-2-N-acetyl) glucopyranoside; Marker Gene Technologies Inc, M1485) were added to the 384-well plate for a final volume of 20 μl. After incubation for 60 min at room temperature, the reaction was terminated by the addition of 10 μL of stop buffer (200 mM glycine, pH 10.75). The level of fluorescence (λexc 485 nm; (λemm 520 nm) was read on a PHERAstar machine. The amount of fluorescence measured was plotted against the concentration of inhibitor to produce a sigmoidal dose response curve to calculate an IC50. All individual data was corrected by subtraction of the background (Thiamet 3 uM=100% inhibition) whilst 0.5% DMSO was considered as the control value (no inhibition).
As a reminder, the IC50 is the concentration that inhibits the measured activity by half. High values mean weaker potency, low ones greater potency. Consider `CC(c1ccc2c(c1)OCC2)N1CCC2(CC1)C(=O)N(Cc1ccc(C#N)cc1)C(=O)N2Cc1ccc(C#N)cc1` (racemic) [Example 30, 4,4′-((8-(1-(2,3-dihydrobenzofuran-6-yl)ethyl)-2,4-dioxo-1,3,8-triazaspiro[4.5]decane-1,3-diyl)bis(methylene))dibenzonitrile], for which the IC50 lay in the range of 200 to 1000 nM. Regarding `CC(c1ccc2c(c1)OCC2)N1CCC2(CC1)NC(=O)N(Cc1ccc(C(F)(F)F)nc1)C2=O` (racemic) [Example 9], the IC50 lay within 50 to 200 nM. The same measure for `CC(c1ccc2c(c1)OCC2)N1CCC2(CC1)NC(=O)N(Cc1cncnc1)C2=O` (racemic) [Example 4, 8-(1-(2,3-dihydrobenzofuran-6-yl)ethyl)-3-(pyrimidin-5-ylmethyl)-1,3,8-triazaspiro[4.5]decane-2,4-dione]: 50 to 200 nM; for `Cc1cc(CN2C(=O)NC3(CCN(C(C)c4ccc5scnc5c4)CC3)C2=O)cc(C)n1` (racemic) [Example 66]: 50 to 200 nM.

In turn, `CC(c1ccc2scnc2c1)N1CCC2(CC1)CN(c1cncnc1)C(=O)N2` (racemic) [Example 37, 8-(1-(benzo[d]thiazol-5-yl)ethyl)-3-(pyrimidin-5-yl)-1,3,8-triazaspiro[4.5]decan-2-one] had an IC50 of 50 to 200 nM.

The molecule `CC(c1ccc2scnc2c1)N1CCC2(CCN(c3ccc(C#N)cc3)C2)CC1` (racemic) [Example 28, 4-(8-(1-(benzo[d]thiazol-5-yl)ethyl)-2,8-diazaspiro[4.5]decan-2-yl) benzonitrile] returned an IC50 of 200 to 1000 nM. In turn, `CC(c1ccc2scnc2c1)N1CCC2(CCN(c3ccc(C#N)cc3)C2=O)CC1` (racemic) [Example 27, 4-(8-(1-(benzo[d]thiazol-5-yl)ethyl)-1-oxo-2,8-diazaspiro[4.5]decan-2-yl)benzonitrile] came in with an IC50 of 200 to 1000 nM. The same measure for `CC(c1ccc2scnc2c1)N1CCC2(CCN(Cc3ccc(C#N)cc3)C2=O)CC1` (racemic) [Example 26, 4-((8-(1-(benzo[d]thiazol-5-yl)ethyl)-1-oxo-2,8-diazaspiro[4.5]decan-2-yl)methyl)benzonitrile]: 200 to 1000 nM.

In turn, `CC(c1ccc2scnc2c1)N1CCC2(CC1)NC(=O)NC2=O` (racemic) [Example 3, 8-(1-(benzo[d]thiazol-5-yl)ethyl)-1,3,8-triazaspiro[4.5]decane-2,4-dione] gave an IC50 of 1000 to 10000 nM. In the case of `CC(c1ccc2c(c1)OCC2)N1CCC2(CC1)C(=O)Nc1ccccc12` (racemic) [Example 21, 1′-(1-(2,3-dihydrobenzofuran-6-yl)ethyl)spiro[indoline-3,4′-piperidin]-2-one], the IC50 lay within 200 to 1000 nM. The same measure for `CC(=O)Nc1ncc(CN2CCC3(CC2)NC(=O)N(Cc2cc(C)nc(C)c2)C3=O)s1` (racemic) [IA4]: less than 50 nM. For `CC(c1ccc2scnc2c1)N1CCC2(CC1)C(=O)N(Cc1ccc(C#N)cc1)c1ccccc12` (racemic) [Example 29, 4-((1′-(1-(benzo[d]thiazol-5-yl)ethyl)-2-oxospiro[indoline-3,4′-piperidin]-1-yl)methyl)benzonitrile], the IC50 lay within 200 to 1000 nM. The same measure for `CC(=O)Nc1ncc(CN2CCC3(CC2)NC(=O)N(Cc2ccc(C)nc2)C3=O)s1` (racemic) [IA3]: 50 to 200 nM; for `CC(c1ccc2scnc2c1)N1CCC2(CC1)C(=O)N(Cc1ccc(C#N)cc1)C(=O)N2C` (racemic) [Example 75]: 1000 to 10000 nM; for `CC(c1ccc2c(c1)OCC2)N1CCC2(CC1)NC(=O)N(Cc1ccc(S(C)(=O)=O)cc1)C2=O` (racemic) [Example 11]: less than 50 nM. The same measure for `CC(c1ccc2scnc2c1)N1CCC2(CC1)C(=O)N(Cc1ccc(S(C)(=O)=O)cc1)C(=O)N2Cc1ccc(S(C)(=O)=O)cc1` (racemic) [Example 24, 8-(1-(benzo[d]thiazol-5-yl)ethyl)-1,3-bis(4-(methylsulfonyl)benzyl)-1,3,8-triazaspiro[4.5]decane-2,4-dione]: 200 to 1000 nM.
